Measurements reported in the supplement of paper PMC10307832.

Key:
Experiment in all cases: relative viability (nuclei count vs DMSO), 5 days (fraction); higher = more cells survive
NCI-H2085 = tested on: NCI-H2085
Summary of the method: (§1)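 Dosing by pin tool came one day after lung cancer cell lines were seeded in 1536-well plates, using either one drug or a fixed anchor-drug dose plus five library-drug doses (not always all listed) in √10 steps. After 5 days, nuclei were counted on 4× images. Relative viability is treated-well nuclei count divided by vehicle-well nuclei count, and values are medians of duplicate plates.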

HCC-44 = tested on: HCC-44
Summary of the method: as §1

EKVX = tested on: EKVX
Summary of the method: as §1

NCI-H1993 = tested on: NCI-H1993
Summary of the method: as §1

NCI-H2126 = tested on: NCI-H2126
Summary of the method: as §1

NCI-H1623 = tested on: NCI-H1623
Summary of the method: as §1

ABC-1 = tested on: ABC-1
Summary of the method: as §1

RERF-LC-KJ = tested on: RERF-LC-KJ
Summary of the method: as §1

A549 = tested on: A549
Summary of the method: as §1

`Cc1sc2c(c1C)C(c1ccc(Cl)cc1)=N[C@@H](CC(=O)OC(C)(C)C)c1nnc(C)n1-2` [JQ1] + CCNC(=O)c1noc(-c2cc(C(C)C)c(O)cc2O)c1-c1ccc(CN2CCOCC2)cc1 [Luminespib] (partner 0.01 µM) gave a relative viability (NCI-H2085; first compound 0.04 µM) of 0.387, a relative viability (NCI-H2085; first compound 0.1265 µM) of 0.434 and a relative viability (NCI-H2085; first compound 0.4 µM) of 0.386. For the same molecule, the relative viability (NCI-H2085; first compound 1.265 µM) was 0.248, the relative viability (NCI-H2085; first compound 4 µM) was 0.182 and the relative viability (HCC-44; first compound 0.04 µM) was 0.968. It also gave a relative viability (HCC-44; first compound 0.1265 µM) of 0.433, a relative viability (HCC-44; first compound 0.4 µM) of 0.551 and a relative viability (HCC-44; first compound 1.265 µM) of 0.388. For the same molecule, the relative viability (HCC-44; first compound 4 µM) was 0.153, the relative viability (EKVX; first compound 0.04 µM) was 0.832 and the relative viability (EKVX; first compound 0.1265 µM) was 0.877. For the same molecule, the relative viability (EKVX; first compound 0.4 µM) was 0.895, the relative viability (EKVX; first compound 1.265 µM) was 0.824 and the relative viability (EKVX; first compound 4 µM) was 0.572. The relative viability (NCI-H1993; first compound 0.04 µM) was 1.03, the relative viability (NCI-H1993; first compound 0.1265 µM) was 0.789 and the relative viability (NCI-H1993; first compound 0.4 µM) was 0.821. The relative viability (NCI-H1993; first compound 1.265 µM) was 0.637, the relative viability (NCI-H1993; first compound 4 µM) was 0.889 and the relative viability (NCI-H2126; first compound 0.04 µM) was 0.968. It also gave a relative viability (NCI-H2126; first compound 0.1265 µM) of 0.767, a relative viability (NCI-H2126; first compound 0.4 µM) of 0.977 and a relative viability (NCI-H2126; first compound 1.265 µM) of 0.864. It also gave a relative viability (NCI-H2126; first compound 4 µM) of 0.659, a relative viability (NCI-H1623; first compound 0.04 µM) of 0.543 and a relative viability (NCI-H1623; first compound 0.1265 µM) of 0.593. For the same molecule, the relative viability (NCI-H1623; first compound 0.4 µM) was 0.459, the relative viability (NCI-H1623; first compound 1.265 µM) was 0.466 and the relative viability (NCI-H1623; first compound 4 µM) was 0.418. For the same molecule, the relative viability (ABC-1; first compound 0.04 µM) was 0.612, the relative viability (ABC-1; first compound 0.1265 µM) was 0.286 and the relative viability (ABC-1; first compound 0.4 µM) was 0.479. For the same molecule, the relative viability (ABC-1; first compound 1.265 µM) was 0.192, the relative viability (ABC-1; first compound 4 µM) was 0.267 and the relative viability (RERF-LC-KJ; first compound 0.04 µM) was 1.25. It also gave a relative viability (RERF-LC-KJ; first compound 0.1265 µM) of 1.07, a relative viability (RERF-LC-KJ; first compound 0.4 µM) of 1.04 and a relative viability (RERF-LC-KJ; first compound 1.265 µM) of 0.668. The relative viability (RERF-LC-KJ; first compound 4 µM) was 0.414.

`Cc1sc2c(c1C)C(c1ccc(Cl)cc1)=N[C@@H](CC(=O)OC(C)(C)C)c1nnc(C)n1-2` [JQ1] + Cc1nc(Nc2ncc(C(=O)Nc3c(C)cccc3Cl)s2)cc(N2CCN(CCO)CC2)n1 [Dasatinib] (partner 0.075 µM) gave a relative viability (NCI-H2085; first compound 0.04 µM) of 0.257, a relative viability (NCI-H2085; first compound 0.1265 µM) of 0.275 and a relative viability (NCI-H2085; first compound 0.4 µM) of 0.189. For the same molecule, the relative viability (NCI-H2085; first compound 1.265 µM) was 0.223, the relative viability (NCI-H2085; first compound 4 µM) was 0.176 and the relative viability (EKVX; first compound 0.04 µM) was 0.517. It also gave a relative viability (EKVX; first compound 0.4 µM) of 0.473, a relative viability (EKVX; first compound 1.265 µM) of 0.45 and a relative viability (EKVX; first compound 4 µM) of 0.417. The relative viability (NCI-H1993; first compound 0.04 µM) was 0.574, the relative viability (NCI-H1993; first compound 0.1265 µM) was 0.798 and the relative viability (NCI-H1993; first compound 0.4 µM) was 0.597. It also gave a relative viability (NCI-H1993; first compound 1.265 µM) of 0.532, a relative viability (NCI-H1993; first compound 4 µM) of 1.44 and a relative viability (NCI-H2126; first compound 0.04 µM) of 0.651. For the same molecule, the relative viability (NCI-H2126; first compound 0.1265 µM) was 0.575, the relative viability (NCI-H2126; first compound 0.4 µM) was 0.431 and the relative viability (NCI-H2126; first compound 1.265 µM) was 0.433. The relative viability (NCI-H2126; first compound 4 µM) was 0.35, the relative viability (NCI-H1623; first compound 0.04 µM) was 0.634 and the relative viability (NCI-H1623; first compound 0.1265 µM) was 0.483. It also gave a relative viability (NCI-H1623; first compound 0.4 µM) of 0.466, a relative viability (NCI-H1623; first compound 1.265 µM) of 0.357 and a relative viability (NCI-H1623; first compound 4 µM) of 0.32. The relative viability (ABC-1; first compound 0.04 µM) was 0.583, the relative viability (ABC-1; first compound 0.1265 µM) was 0.413 and the relative viability (ABC-1; first compound 0.4 µM) was 0.417. It also gave a relative viability (ABC-1; first compound 1.265 µM) of 0.429, a relative viability (ABC-1; first compound 4 µM) of 0.333 and a relative viability (RERF-LC-KJ; first compound 0.04 µM) of 0.763. It also gave a relative viability (RERF-LC-KJ; first compound 0.1265 µM) of 0.646, a relative viability (RERF-LC-KJ; first compound 0.4 µM) of 0.72 and a relative viability (RERF-LC-KJ; first compound 1.265 µM) of 0.576. For the same molecule, the relative viability (RERF-LC-KJ; first compound 4 µM) was 0.332.

In the case of `Cc1sc2c(c1C)C(c1ccc(Cl)cc1)=N[C@@H](CC(=O)OC(C)(C)C)c1nnc(C)n1-2` [JQ1] + N=C(N)NC(=N)NCCc1ccccc1 [Phenformin] (partner 250 µM), the relative viability (NCI-H2085; first compound 0.04 µM) is reported as 0.712, the relative viability (NCI-H2085; first compound 0.1265 µM) is reported as 0.611 and the relative viability (NCI-H2085; first compound 0.4 µM) is reported as 0.552. The relative viability (NCI-H2085; first compound 1.265 µM) was 0.393, the relative viability (NCI-H2085; first compound 4 µM) was 0.426 and the relative viability (A549; first compound 0.04 µM) was 0.171. The relative viability (A549; first compound 0.1265 µM) was 0.137, the relative viability (A549; first compound 0.4 µM) was 0.14 and the relative viability (A549; first compound 1.265 µM) was 0.182. It also gave a relative viability (A549; first compound 4 µM) of 0.21, a relative viability (HCC-44; first compound 0.04 µM) of 0.201 and a relative viability (HCC-44; first compound 0.1265 µM) of 0.184. For the same molecule, the relative viability (HCC-44; first compound 0.4 µM) was 0.161, the relative viability (HCC-44; first compound 1.265 µM) was 0.125 and the relative viability (HCC-44; first compound 4 µM) was 0.111. It also gave a relative viability (EKVX; first compound 0.04 µM) of 0.257, a relative viability (EKVX; first compound 0.1265 µM) of 0.257 and a relative viability (EKVX; first compound 0.4 µM) of 0.27. It also gave a relative viability (EKVX; first compound 1.265 µM) of 0.243, a relative viability (EKVX; first compound 4 µM) of 0.218 and a relative viability (NCI-H1993; first compound 0.04 µM) of 0.49. It also gave a relative viability (NCI-H1993; first compound 0.1265 µM) of 0.55, a relative viability (NCI-H1993; first compound 0.4 µM) of 0.561 and a relative viability (NCI-H1993; first compound 1.265 µM) of 0.557. For the same molecule, the relative viability (NCI-H1993; first compound 4 µM) was 0.572, the relative viability (NCI-H2126; first compound 0.04 µM) was 0.552 and the relative viability (NCI-H2126; first compound 0.1265 µM) was 0.555. The relative viability (NCI-H2126; first compound 0.4 µM) was 0.489, the relative viability (NCI-H2126; first compound 1.265 µM) was 0.39 and the relative viability (NCI-H2126; first compound 4 µM) was 0.411. It also gave a relative viability (NCI-H1623; first compound 0.04 µM) of 0.597, a relative viability (NCI-H1623; first compound 0.1265 µM) of 0.628 and a relative viability (NCI-H1623; first compound 0.4 µM) of 0.547. For the same molecule, the relative viability (NCI-H1623; first compound 1.265 µM) was 0.486, the relative viability (NCI-H1623; first compound 4 µM) was 0.406 and the relative viability (ABC-1; first compound 0.04 µM) was 0.238. The relative viability (ABC-1; first compound 0.1265 µM) was 0.282, the relative viability (ABC-1; first compound 0.4 µM) was 0.225 and the relative viability (ABC-1; first compound 1.265 µM) was 0.227. The relative viability (ABC-1; first compound 4 µM) was 0.232, the relative viability (RERF-LC-KJ; first compound 0.04 µM) was 0.402 and the relative viability (RERF-LC-KJ; first compound 0.1265 µM) was 0.374. For the same molecule, the relative viability (RERF-LC-KJ; first compound 0.4 µM) was 0.324, the relative viability (RERF-LC-KJ; first compound 1.265 µM) was 0.316 and the relative viability (RERF-LC-KJ; first compound 4 µM) was 0.292.
